Reference: ChEMBL document CHEMBL4673259, “Discovery of isoquinolinone and naphthyridinone-based inhibitors of poly(ADP-ribose) polymerase-1 (PARP1) as anticancer agents: Structure activity relationship and preclinical characterization” (Bioorg Med Chem, 2020)

Tests used:
MDA-MB-436 [1] = assay: Anticancer activity against human MDA-MB-436 cells harboring BRCA mutant xenografted in SCID/nude mouse assessed as tumor growth regression at 1.5 mg/kg, po bid and measured up to 5 weeks post-drug administration; assay type: functional; conditions: MDA-MB-436, po, 840 h, time weeks <=5
[2] = Tmax in BALB/c mouse at 1 mg/kg, iv measured up to 24 hrs by LC-MS/MS analysis; assay type: ADME, organism-based; conditions: in vivo
[3] = Oral bioavailability in BALB/c mouse at 10 mg/kg measured up to 24 hrs by LC-MS/MS analysis; assay type: ADME, organism-based; conditions: in vivo
HEK293 [4] = assay: Cytotoxicity against HEK293 cells assessed as inhibition of cell viability; assay type: cell-based; conditions: human
[5] = molecular target: T1, Poly [ADP-ribose] polymerase 1 (Homo sapiens, UniProt P09874); assay: Inhibition of PARP1 in human MDA-MB-436 cells assessed as inhibition of PARylation at 10 nM incubated for 1 hr by chemiluminescence assay; assay type: cell-based
[6] = Half life in BALB/c mouse at 1 mg/kg, iv measured up to 24 hrs by LC-MS/MS analysis; assay type: ADME, organism-based; conditions: in vivo
[7] = molecular target: T1, Poly [ADP-ribose] polymerase 1; assay: Inhibition of N-terminal GST-tagged human full length PARP1 (2 to 1041 residues) expressed in baculovirus infected Sf9 cells using histone mixture (H2A and H2B) and biotinylated NAD+ as substrate in presence of activated DNA incubated for 60 mins by chemiluminescence assay
[8] = AUClast in BALB/c mouse at 10 mg/kg, po measured up to 24 hrs by LC-MS/MS analysis; assay type: ADME, organism-based; design: route oral, dose 10 mg/kg, time <=24; conditions: in vivo
[9] = Cmax in BALB/c mouse at 10 mg/kg, po measured up to 24 hrs by LC-MS/MS analysis; assay type: ADME, organism-based; design: route oral, dose 10 mg/kg, time <=24; conditions: in vivo
[10] = Tmax in BALB/c mouse at 10 mg/kg, po measured up to 24 hrs by LC-MS/MS analysis; assay type: ADME, organism-based; conditions: in vivo
MDA-MB-436 [11] = assay: Cytotoxicity against human MDA-MB-436 cells assessed as inhibition of cell viability incubated for 4 days by CellTiterGlo luminescence assay; conditions: MDA-MB-436, 96 h
[12] = Volume of distribution at steady state in BALB/c mouse at 1 mg/kg, iv measured up to 24 hrs by LC-MS/MS analysis; assay type: ADME, organism-based; conditions: in vivo, read-out: Vdss
[13] = molecular target: Poly [ADP-ribose] polymerase 2 (Homo sapiens, UniProt Q9UGN5); assay: Inhibition of N-terminal GST-tagged human PARP2 (2 to 583 residues) expressed in baculovirus infected Sf9 cells using histone mixture (H2A and H2B) and biotinylated NAD+ as substrate in presence of activated DNA incubated for 60 mins by chemiluminescence assay
MCF7 = assay: Cytotoxicity against human MCF7 cells harboring wild type BRCA at 1000 nM relative to control; assay type: cell-based; conditions: mcf7, 1 µM
[14] = Cmax in BALB/c mouse at 1 mg/kg, iv measured up to 24 hrs by LC-MS/MS analysis; assay type: ADME, organism-based; design: route intravenous, dose 1 mg/kg, time <=24; conditions: in vivo
[15] = AUClast in BALB/c mouse at 1 mg/kg, iv measured up to 24 hrs by LC-MS/MS analysis; assay type: ADME, organism-based; design: route intravenous, dose 1 mg/kg, time <=24; conditions: in vivo
[16] = Clearance in BALB/c mouse at 1 mg/kg, iv measured up to 24 hrs by LC-MS/MS analysis; assay type: ADME, organism-based; conditions: in vivo
MDA-MB-436 [17] = assay: Cytotoxicity against human MDA-MB-436 cells assessed as inhibition of cell viability incubated for 14 days with three intermittent intervals by CellTiterGlo luminescence assay; conditions: MDA-MB-436, 336 h
MDA-MB-436 [18] = assay: Potentiation of anticancer activity against human MDA-MB-436 cells harboring BRCA mutant xenografted in SCID/nude mouse assessed as tumor growth inhibition at 3 mg/kg, po bid for 12 days co-administered with TMZ measured up to 9 weeks post-drug administration; assay type: functional; conditions: MDA-MB-436, po, 288 h, time 12 day
CAPAN-1 = assay: Potentiation of anticancer activity against human CAPAN-1 cells harboring BRCA mutant xenografted in SCID/nude mouse assessed as tumor growth inhibition at 3 mg/kg, po bid for 12 days co-administered with TMZ measured up to 9 weeks post-drug administration; assay type: functional; conditions: CAPAN-1, po, 288 h, time 12 day
SK-ES1 = assay: Potentiation of anticancer activity against human SK-ES-1 cells harboring EWSF1 translocation xenografted in SCID/nude mouse assessed as tumor growth inhibition at 3 mg/kg, po bid for 12 days co-administered with TMZ measured up to 9 weeks post drug administration; assay type: functional; conditions: 288 h, time 12 day
HEK293 [19] = assay: Cytotoxicity against HEK293 cells at 1000 nM relative to control; assay type: cell-based; conditions: human, hek293, 1 µM
[20] = Toxicity against SCID/nude mouse xenografted with human SK-ES-1 cells harboring EWSF1 translocation assessed as body weight loss at 0.15 mg/kg, po bid for 12 days co-administered with 35 mg/kg, po TMZ; assay type: organism-based; conditions: in vivo, 288 h, time 12 day
[21] = Toxicity against SCID/nude mouse xenografted with human CAPAN-1 cells harboring BRCA mutant assessed as body weight loss at 0.15 mg/kg, po bid for 12 days co-administered with lower dose of TMZ; assay type: organism-based; conditions: in vivo, 288 h, time 12 day
[22] = Toxicity against SCID/nude mouse xenografted with human MDA-MB-436 cells harboring BRCA mutant assessed as body weight loss at 0.15 mg/kg, po bid for 12 days co-administered with lower dose of TMZ; assay type: organism-based; conditions: in vivo, 288 h, time 12 day
MDA-MB-436 [23] = assay: Anticancer activity against human MDA-MB-436 cells harboring BRCA mutant xenografted in SCID/nude mouse assessed as tumor growth regression at 0.15 mg/kg, po bid and measured up to 5 weeks post-drug administration; assay type: functional; conditions: MDA-MB-436, po, 840 h, time weeks <=5
[24] = Toxicity against SCID/nude mouse xenografted with human MDA-MB-436 cells harboring BRCA mutant assessed as hypothermia at 0.15 mg/kg, po bid for 12 days co-administered with 35 mg/kg, po TMZ; assay type: organism-based; conditions: in vivo, 288 h, time 12 day
[25] = Toxicity against SCID/nude mouse xenografted with human CAPAN-1 cells harboring BRCA mutant assessed as body weight loss at 0.15 mg/kg, po bid for 12 days co-administered with 35 mg/kg, po TMZ; assay type: organism-based; conditions: in vivo, 288 h, time 12 day
[26] = Toxicity against SCID/nude mouse xenografted with human MDA-MB-436 cells harboring BRCA mutant assessed as body weight loss at 0.15 mg/kg, po bid for 12 days co-administered with 35 mg/kg, po TMZ; assay type: organism-based; conditions: in vivo, 288 h, time 12 day
[27] = Toxicity against SCID/nude mouse xenografted with human SK-ES-1 cells harboring EWSF1 translocation assessed as hypothermia at 0.15 mg/kg, po bid for 12 days co-administered with 35 mg/kg, po TMZ; assay type: organism-based; conditions: in vivo, 288 h, time 12 day
[28] = Toxicity against SCID/nude mouse xenografted with human CAPAN-1 cells harboring BRCA mutant assessed as hypothermia at 0.15 mg/kg, po bid for 12 days co-administered with 35 mg/kg, po TMZ; assay type: organism-based; conditions: in vivo, 288 h, time 12 day
[29] = Toxicity in SCID/nude mouse xenografted with human MDA-MB-436 cells harboring BRCA mutant assessed as body weight loss at 0.15 mg/kg, po bid; assay type: organism-based; conditions: in vivo
[30] = Toxicity against SCID/nude mouse xenografted with human SK-ES-1 cells harboring EWSF1 translocation assessed as body weight loss at 0.15 mg/kg, po bid for 12 days co-administered with lower dose of TMZ; assay type: organism-based; conditions: in vivo, 288 h, time 12 day
[31] = Toxicity in SCID/nude mouse xenografted with human MDA-MB-436 cells harboring BRCA mutant assessed as body weight loss at 50 mg/kg, po bid; assay type: organism-based; conditions: in vivo
MDA-MB-436 [32] = assay: Anticancer activity against human MDA-MB-436 cells harboring BRCA mutant xenografted in SCID/nude mouse assessed as tumor growth regression at 50 mg/kg, po bid and measured up to 5 weeks post-drug administration; assay type: functional; conditions: MDA-MB-436, po, 840 h, time weeks <=5

Poly [ADP-ribose] polymerase 2, sequence (Q9UGN5 whole entry, the tested form may be a part): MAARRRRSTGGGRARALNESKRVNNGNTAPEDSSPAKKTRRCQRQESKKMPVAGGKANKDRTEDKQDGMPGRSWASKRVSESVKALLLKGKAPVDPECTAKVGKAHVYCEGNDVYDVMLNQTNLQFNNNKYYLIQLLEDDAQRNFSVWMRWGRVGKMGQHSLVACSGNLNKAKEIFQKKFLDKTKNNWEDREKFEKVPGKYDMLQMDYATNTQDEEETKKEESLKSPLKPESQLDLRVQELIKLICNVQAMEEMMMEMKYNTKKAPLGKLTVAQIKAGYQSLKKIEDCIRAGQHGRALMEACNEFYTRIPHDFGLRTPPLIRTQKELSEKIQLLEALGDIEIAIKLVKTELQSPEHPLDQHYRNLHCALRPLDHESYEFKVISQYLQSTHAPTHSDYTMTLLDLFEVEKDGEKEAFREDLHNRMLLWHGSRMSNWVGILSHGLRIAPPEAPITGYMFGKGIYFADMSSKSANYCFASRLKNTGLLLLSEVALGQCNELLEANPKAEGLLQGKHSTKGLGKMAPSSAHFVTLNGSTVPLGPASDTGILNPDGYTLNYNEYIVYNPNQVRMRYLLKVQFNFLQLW
T1 sequence (P09874 whole entry): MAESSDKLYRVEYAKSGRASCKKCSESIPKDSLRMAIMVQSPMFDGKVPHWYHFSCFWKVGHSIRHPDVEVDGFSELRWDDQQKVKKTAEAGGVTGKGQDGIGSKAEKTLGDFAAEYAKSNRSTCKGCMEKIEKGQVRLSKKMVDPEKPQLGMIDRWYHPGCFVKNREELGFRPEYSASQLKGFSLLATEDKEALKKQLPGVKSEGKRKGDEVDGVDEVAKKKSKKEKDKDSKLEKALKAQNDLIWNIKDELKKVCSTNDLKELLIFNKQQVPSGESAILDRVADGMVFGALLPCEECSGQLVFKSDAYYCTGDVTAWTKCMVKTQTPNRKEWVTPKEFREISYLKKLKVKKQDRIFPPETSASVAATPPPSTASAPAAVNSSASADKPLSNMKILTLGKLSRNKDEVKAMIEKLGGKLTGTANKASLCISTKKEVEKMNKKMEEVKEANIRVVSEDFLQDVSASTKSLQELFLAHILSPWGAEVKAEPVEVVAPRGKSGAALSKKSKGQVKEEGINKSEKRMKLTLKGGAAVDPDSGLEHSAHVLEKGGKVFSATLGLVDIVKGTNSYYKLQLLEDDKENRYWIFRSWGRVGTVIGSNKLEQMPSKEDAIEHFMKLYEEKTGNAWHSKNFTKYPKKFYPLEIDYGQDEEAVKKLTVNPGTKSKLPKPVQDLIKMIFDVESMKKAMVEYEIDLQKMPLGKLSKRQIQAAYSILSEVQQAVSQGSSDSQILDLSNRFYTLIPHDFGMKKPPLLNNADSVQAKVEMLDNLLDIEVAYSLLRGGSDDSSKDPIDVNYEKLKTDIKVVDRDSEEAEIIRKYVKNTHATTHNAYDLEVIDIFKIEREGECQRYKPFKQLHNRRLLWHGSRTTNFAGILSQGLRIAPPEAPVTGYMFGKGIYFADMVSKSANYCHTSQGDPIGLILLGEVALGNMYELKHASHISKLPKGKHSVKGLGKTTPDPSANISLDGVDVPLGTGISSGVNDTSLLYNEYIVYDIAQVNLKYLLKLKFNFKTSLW

Row | SMILES | inhibition [5] [%] | IC50 [7] [nM] | IC50 (MDA-MB-436 [11]) [nM] | IC50 [13] [nM] | IC50 (MDA-MB-436 [17]) [nM] | also measured
1 | N#Cc1ccc(N2CCN(CCCc3cc4c(N)cc(F)cc4c(=O)[nH]3)CC2)cc1 | 86 | 0.6 | 0.015 | 3.9 | 0.0006 | inhibition in vivo at 1.5 mg/kg (MDA-MB-436 [1]): 29%; Tmax [2]: 4.8 min; bioavailability [3]: 8%; Activity (HEK293 [4]): Non-Toxic; half-life [6]: 66 min; AUC(0-t) at 24 h [8]: 1.9 µM·h; Cmax [9]: 1.5 µM; Tmax [10]: 15 min; Vd [12]: 0.8 L/kg; Activity (MCF7): 23%; Cmax [14]: 3.7 µM; AUC(0-t) at 24 h [15]: 2.4 µM·h; clearance [16]: 17 mL/min/kg
2 | CNCc1ccc(-c2[nH]c3cc(F)cc4c3c2CCNC4=O)cc1 [RUCAPARIB] | – | – | – | – | – | inhibition in vivo at 3 mg/kg (MDA-MB-436 [18]): 95%; inhibition in vivo at 3 mg/kg (CAPAN-1): 46%; inhibition in vivo at 3 mg/kg (SK-ES1): 20.6%
3 | Nc1cc(F)cc2c(=O)[nH]c(CCCN3CCN(c4ccc(F)cc4)CC3)cc12 | 68 | 0.9 | 1.13 | 9.5 | 0.05 | –
4 | N#Cc1ccc(N2CCN([C@H]3C=C(c4cc5ncccc5c(=O)[nH]4)CC3)CC2)nc1 | 92 | 1 | 1.1 | 16.6 | 0.05 | –
5 | N#Cc1ccc(N2CCN([C@H]3C=C(c4cc5c(N)cc(F)cc5c(=O)[nH]4)CC3)CC2)cc1 | 92 | 1 | 0.073 | 1.3 | 0.0016 | inhibition in vivo at 1.5 mg/kg (MDA-MB-436 [1]): 94%; Tmax [2]: 4.8 min; bioavailability [3]: 59%; Activity (HEK293 [19]): 65%; half-life [6]: 132 min; AUC(0-t) at 24 h [8]: 106 µM·h; Cmax [9]: 19 µM; Tmax [10]: 15 min; Vd [12]: 0.4 L/kg; Activity (MCF7): 36%; Cmax [14]: 11 µM; AUC(0-t) at 24 h [15]: 18 µM·h; clearance [16]: 2.2 mL/min/kg
6 | N#Cc1ccc(N2CCN([C@H]3C=C(c4cc5c(N)cc(F)cc5c(=O)[nH]4)CC3)CC2)c(F)c1 | 89 | 0.9 | 0.06 | 2.6 | 0.05 | –
7 | N#Cc1ccc(N2CCN([C@H]3C=C(c4cc5ncc(F)cc5c(=O)[nH]4)CC3)CC2)cc1 | 91 | 0.9 | 0.17 | 26.9 | 0.007 | –
8 | NC(=O)c1ccc(N2CCN(CCCc3cc4c(N)cc(F)cc4c(=O)[nH]3)CC2)cc1 | 54 | 0.4 | 1.48 | 4.6 | 0.33 | –
9 | Cn1ncnc1[C@H]1c2n[nH]c(=O)c3cc(F)cc(c23)N[C@@H]1c1ccc(F)cc1 [TALAZOPARIB] | 91 | – | – | – | – | Activity [20]: Toxic; Activity [21]: Non-Toxic; Activity [22]: Non-Toxic; Activity (HEK293 [19]): 95%; inhibition in vivo at 0.15 mg/kg (MDA-MB-436 [23]): 65%; Activity [24]: Toxic; Activity [25]: Toxic; Activity [26]: Toxic; Activity [27]: Toxic; Activity [28]: Toxic; Activity (MCF7): 98%; Activity [29]: 10%; Activity [30]: Non-Toxic
10 | N#Cc1ccc(N2CCN(CCCc3cc4c(N)cccc4c(=O)[nH]3)CC2)cc1 | 93 | 0.6 | 0.02 | 7.2 | 0.001 | –
11 | N#Cc1ccc(N2CCN([C@@H]3C=C(c4cc5c(N)cccc5c(=O)[nH]4)CC3)CC2)cc1 | 83 | 2.5 | – | 167 | – | –
12 | O=C(c1cc(Cc2n[nH]c(=O)c3ccccc23)ccc1F)N1CCN(C(=O)C2CC2)CC1 [OLAPARIB] | – | – | – | – | – | inhibition in vivo at 3 mg/kg (MDA-MB-436 [18]): 39%; Activity [31]: 10%; inhibition in vivo at 3 mg/kg (CAPAN-1): 49%; inhibition in vivo at 3 mg/kg (SK-ES1): 39.5%; inhibition in vivo at 50 mg/kg (MDA-MB-436 [32]): 40%
13 | N#Cc1ccc(N2CCN([C@@H]3C=C(c4cc5c(N)cc(F)cc5c(=O)[nH]4)CC3)CC2)cc1 | 40 | 5 | – | 200 | – | –
14 | N#Cc1ccc(N2CCN([C@H]3C=C(c4cc5c(N)cccc5c(=O)[nH]4)CC3)CC2)cc1 | 92 | 0.6 | 0.109 | 1.5 | 0.005 | –
15 | CNC(=O)c1ccc(N2CCN(CCCc3cc4c(N)cc(F)cc4c(=O)[nH]3)CC2)cc1 | 62 | 0.8 | 0.35 | 10.8 | 0.01 | –
16 | N#Cc1ccc(N2CCN([C@@H]3C=C(c4cc5c(N)cc(F)cc5c(=O)[nH]4)CC3)CC2)c(F)c1 | – | 5.6 | – | 58 | – | –
